Results on ten molecules are retold here after patent publication US20190275012A9, “SUBSTITUTED THIAZOLO-PYRIDINE COMPOUNDS AS MALT1 INHIBITORS” (Lupin Limited, priority 2016, published 2019).

As usually defined, the IC50 is the point on the concentration scale where inhibition reaches its midpoint.

SMILES strings stand for the structures.

One test deals with T1, full length MALT1 enzyme (Homo sapiens, UniProt Q9UDY8).
T1 construct: a fluorescence based assay with full length MALT1 enzyme
T1 sequence (Q9UDY8 1-824): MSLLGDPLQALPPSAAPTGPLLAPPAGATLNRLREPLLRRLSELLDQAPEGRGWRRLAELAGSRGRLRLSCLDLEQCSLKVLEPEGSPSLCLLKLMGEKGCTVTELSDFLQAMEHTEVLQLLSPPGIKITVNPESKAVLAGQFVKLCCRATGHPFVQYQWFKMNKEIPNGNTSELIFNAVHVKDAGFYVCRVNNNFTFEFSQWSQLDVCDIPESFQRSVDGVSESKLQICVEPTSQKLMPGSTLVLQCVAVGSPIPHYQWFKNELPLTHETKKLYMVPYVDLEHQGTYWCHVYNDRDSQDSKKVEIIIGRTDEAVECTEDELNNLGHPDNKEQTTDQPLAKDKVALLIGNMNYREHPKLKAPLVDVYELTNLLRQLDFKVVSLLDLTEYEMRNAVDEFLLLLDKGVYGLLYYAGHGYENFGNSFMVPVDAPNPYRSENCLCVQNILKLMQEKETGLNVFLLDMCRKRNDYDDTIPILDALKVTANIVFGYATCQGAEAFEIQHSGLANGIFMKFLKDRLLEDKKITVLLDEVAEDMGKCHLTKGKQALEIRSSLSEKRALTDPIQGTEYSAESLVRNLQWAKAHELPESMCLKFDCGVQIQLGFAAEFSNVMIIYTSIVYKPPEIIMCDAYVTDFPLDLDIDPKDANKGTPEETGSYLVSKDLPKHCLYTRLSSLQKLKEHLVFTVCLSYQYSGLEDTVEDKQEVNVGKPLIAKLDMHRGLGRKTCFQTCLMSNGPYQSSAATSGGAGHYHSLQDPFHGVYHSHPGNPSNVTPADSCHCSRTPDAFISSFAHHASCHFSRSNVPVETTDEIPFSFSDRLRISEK
As to the kind of experiment: MALT1 biochemical assay (fluorescence based, Ac-Leu-Arg-Ser-Arg-AMC cleavage). The note with it: full length MALT1 protein, 2 h pre-incubation at RT, tetrapeptide substrate Ac-Leu-Arg-Ser-Arg-AMC, read-out: Malt 1 inhibition IC50. In short, it runs like this:
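Full-length MALT1 (100-300 ng/well) was pre-incubated with compound for 2 h at RT, then 100 μM Ac-LRSR-AMC was added for 4-12 h. Buffer was 50 mM MES, 150 mM NaCl, 0.1% CHAPS, 1 M ammonium citrate, 10 mM DTT, pH 7, with 0.5% DMSO. IC50 was derived from AMC fluorescence (ex 360/em 460 nm).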

In test [1] the test system is NF-kB transcriptional activity in HEK-293-NF-kB-Luc cell line overexpressing MALT1. In words: NF-kB reporter assay (luciferase, MALT1 stably overexpressed). The test is classed as cell-based. The note with it: Homo sapiens, 24 h, HEK-293-NF-kB-Luc cells stably overexpressing MALT1, 24 h treatment, Bright Glo luminescence; read-out: NF-kB inhibition IC50. In short, it runs like this: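 Inhibition of NF-κB activity was expressed relative to 0.1% DMSO wells, from luminescence after 10 min Bright Glo at ambient temperature. Compounds had been applied for 24 h to adhered MALT1-overexpressing HEK-293 NF-κB luciferase reporter cells.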

Regarding `COC1CCCN(c2c(NC(=O)Nc3cnc(-n4nccn4)c(Cl)c3)cnc3sc(C)nc23)C1` (racemic) [Compound 52, (ě)-1-(5-Chloro-6-(2H-1,2,3-triazol-2-yl)pyridin-3-yl)-3-(7-(3-methoxypiperidin-1-yl)-2-methylthiazolo[5,4-b]pyridin-6-yl)urea], the IC50 on full length MALT1 enzyme was 1 to 50 nM; in test [1], 101 to 500 nM.
The corresponding values for `Cc1nc2c(C3CC3)c(NC(=O)Nc3cnc(N4CCCS4(=O)=O)c(C(F)(F)F)c3)cnc2s1` [Compound 23, 1-(7-Cyclopropyl-2-methylthiazolo[5,4-b]pyridin-6-yl)-3-(6-(1,1-dioxidoisothiazolidin-2-yl)-5-(trifluoromethyl)pyridin-3-yl)urea] are 51 to 100 nM and 101 to 500 nM.
On to `COC(C)c1c(NC(=O)Nc2cnc(-n3cnnn3)c(C(F)(F)F)c2)cnc2sc(C)nc12` (single isomer, unassigned) [Compound 239, (S or R)-1-(6-(1H-Tetrazol-1-yl)-5-(trifluoromethyl)pyridin-3-yl)-3-(7-(1-methoxyethyl)-2-methylthiazolo[5,4-b]pyridin-6-yl)urea], for which the figures for the IC50 (on full length MALT1 enzyme; in test [1]) were 1 to 50 nM and 1 to 100 nM, respectively.
Regarding `COCC1(c2c(NC(=O)Nc3cnc(-n4nccn4)c(C(F)(F)F)c3)cnc3sc(C)nc23)CC1` [Compound 102, 1-(6-(2H-1,2,3-Triazol-2-yl)-5-(trifluoromethyl)pyridin-3-yl)-3-(7-(1-(methoxymethyl)cyclopropyl)-2-methylthiazolo[5,4-b]pyridin-6-yl)urea], the values for the IC50 (on full length MALT1 enzyme; in test [1]) were 1 to 50 nM and 1 to 100 nM, respectively.
The corresponding values for `COCc1c(NC(=O)Nc2cnc(-n3nccn3)c(Cl)c2)cnc2sc(C)nc12` [Compound 176, 1-(5-Chloro-6-(2H-1,2,3-triazol-2-yl)pyridin-3-yl)-3-(7-(metdoxymethyl)-2-methylthiazolo[5,4-b]pyridin-6-yl)urea] are 1 to 50 nM and 101 to 500 nM.
The corresponding values for `COC(C)c1c(NC(=O)Nc2cnc(-n3nccn3)c(C(F)(F)F)c2)cnc2sc(C)nc12` (single isomer, unassigned) [Compound 142a, 1-(6-(2H-1,2,3-Triazol-2-yl)-5-(trifluoromethyl)pyridin-3-yl)-3-(7-(1-methoxyethyl)-2-methylthiazolo[5,4-b]pyridin-6-yl)urea] are 1 to 50 nM and 1 to 100 nM.
On the same counts, the results for `COCC1CCCN(c2c(NC(=O)Nc3cnc(OC)c(Cl)c3)cnc3sc(C)nc23)C1` (racemic) [Compound 51, (ě)-1-(5-Chloro-6-methoxypyridin-3-yl)-3-(7-(3-(methoxymethyl)piperidin-1-yl)-2-methylthiazolo[5,4-b]pyridin-6-yl)urea] are 51 to 100 nM and 501 to 1500 nM.
`Cc1nc2c(C3CC3)c(NC(=O)Nc3cc(C(F)(F)F)cn(C)c3=O)cnc2s1` [Compound 5, 1-(7-Cyclopropyl-2-methylthiazolo[5,4-b]pyridin-6-yl)-3-(1-methyl-2-oxo-5-(trifluoromethyl)-1,2-dihydropyridin-3-yl)urea]: the IC50 (at full length MALT1 enzyme; in test [1]) was 101 to 500 nM in each case.
Consider `Cc1nc2c(C3CC3)c(NC(=O)Nc3cc(Cl)c(-n4ccnn4)c(Cl)c3)cnc2s1` [Compound 170, 1-(7-Cyclopropyl-2-methylthiazolo[5,4-b]pyridin-6-yl)-3-(3,5-dichloro-4-(1H-1,2,3-triazol-1-yl)phenyl)urea], for which the values for the IC50 (at full length MALT1 enzyme; in test [1]) were 1 to 50 nM and 101 to 500 nM, respectively.
As for `COc1cc(F)ccc1-c1c(NC(=O)Nc2cnc(OC)c(Cl)c2)cnc2sc(C)nc12` [Compound 15, 1-(5-Chloro-6-methoxypyridin-3-yl)-3-(7-(4-fluoro-2-methoxyphenyl)-2-methylthiazolo[5,4-b]pyridin-6-yl)urea], the IC50 is 1 to 50 nM at full length MALT1 enzyme and 501 to 1500 nM in test [1].
